Laboratory results from ChEMBL document CHEMBL1201862, “PubChem BioAssay data set” (2004).
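Cells were grown in 96-well plates and exposed to each compound for 48 hours at five concentrations; endpoints were interpolated linearly between bracketing concentrations, or set to the highest concentration if not reached. Here, GI50 denotes the concentration required for 50% inhibition of growth.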 The source made the active and inactive calls. No stated cut-off is given here; in the data, active = GI50 up to about 1.1 µM and inactive = higher.

Legend:
Assay in all cases: NCI anticancer screen, dose series, 48 h
A498 = test system: A498
ACHN = test system: ACHN
PC-3 = test system: PC-3
SK-MEL-5 = test system: SK-MEL-5
HL-60 = test system: HL-60
SNB-75 = test system: SNB-75
786-0 = test system: 786-0
KM12 = test system: KM12
TK-10 = test system: TK-10
K562 = test system: K562
UACC-62 = test system: UACC-62
SNB-19 = test system: SNB-19
HT-29 = test system: HT-29
RXF 393 = test system: RXF 393
SF-539 = test system: SF-539
SF-295 = test system: SF-295
MOLT-4 = test system: MOLT-4
SK-MEL-28 = test system: SK-MEL-28
M14 = test system: M14
MDA-N = test system: MDA-N

Row | Structure (SMILES) | GI50 (A498) | GI50 (ACHN) | GI50 (PC-3) | GI50 (SK-MEL-5) | GI50 (HL-60) | GI50 (SNB-75) | GI50 (786-0) | GI50 (KM12) | GI50 (TK-10) | GI50 (K562) | GI50 (UACC-62) | GI50 (SNB-19) | GI50 (HT-29) | GI50 (RXF 393) | GI50 (SF-539) | GI50 (SF-295) | GI50 (MOLT-4) | GI50 (SK-MEL-28) | GI50 (M14) | GI50 (MDA-N)
1 | CN(C)/C=N/S(=O)(=O)c1nn2c(C=O)c(-c3ccc([N+](=O)[O-])cc3)nc2s1 | 27.6 µM (inactive) | 2.03 µM (inactive) | 7.21 µM (inactive) | 3.3 µM (inactive) | 1.38 µM (inactive) | 23.6 µM (inactive) | 2.29 µM (inactive) | 9.12 µM (inactive) | 5.73 µM (inactive) | 2.43 µM (inactive) | 4.91 µM (inactive) | 28.6 µM (inactive) | 1.54 µM (inactive) | 5.62 µM (inactive) | 8.11 µM (inactive) | 35.1 µM (inactive) | 2.35 µM (inactive) | 4.23 µM (inactive) | 2.79 µM (inactive) | 2.91 µM (inactive)
2 | COc1cc(C(c2cc(OC)c(OC)c(OC)c2)N2C(=O)CCC2C(=O)O)cc(OC)c1OC (configuration not stated) | > 100 µM (inactive) | > 100 µM (inactive) | > 100 µM (inactive) | > 100 µM (inactive) | > 100 µM (inactive) | > 100 µM (inactive) | > 100 µM (inactive) | > 100 µM (inactive) |  | > 100 µM (inactive) | > 100 µM (inactive) | > 100 µM (inactive) | > 100 µM (inactive) | > 100 µM (inactive) | > 100 µM (inactive) | > 100 µM (inactive) | > 100 µM (inactive) | > 100 µM (inactive) | > 100 µM (inactive) | > 100 µM (inactive)
3 | C=CC(=O)C#Cc1cnc(OC)nc1OC | 34.3 µM (inactive) | 7.43 µM (inactive) | 19.8 µM (inactive) | 15.2 µM (inactive) | 1.09 µM (active) | 12.6 µM (inactive) | 4.15 µM (inactive) | 13.4 µM (inactive) | 15.6 µM (inactive) | 1.38 µM (inactive) | 16.1 µM (inactive) | 19.1 µM (inactive) | 16.1 µM (inactive) | 25.2 µM (inactive) | 13.3 µM (inactive) | 41.4 µM (inactive) | 1.69 µM (inactive) | 10.4 µM (inactive) | 14.9 µM (inactive) | 16.4 µM (inactive)
4 | CC(=O)Oc1c(C)c2c(c3ccccc13)OC(C)(C)C2 | 20.9 µM (inactive) | 17.3 µM (inactive) | 22.6 µM (inactive) | 10.5 µM (inactive) | 22.4 µM (inactive) | 19 µM (inactive) | 15.3 µM (inactive) | 14.5 µM (inactive) | 18.6 µM (inactive) | 29.2 µM (inactive) | 16.3 µM (inactive) | 26.3 µM (inactive) | 18.1 µM (inactive) | 20.7 µM (inactive) | 20.4 µM (inactive) | 17 µM (inactive) | 15.1 µM (inactive) | 18.8 µM (inactive) | 16.4 µM (inactive) | 12 µM (inactive)
5 | C[C@H](CCC(=O)O)[C@H]1CC[C@H]2[C@@H]3[C@@H](O)C[C@@H]4C[C@H](O)CC[C@]4(C)[C@H]3C[C@H](O)[C@]12C | > 100 µM (inactive) | > 100 µM (inactive) | > 100 µM (inactive) |  | > 100 µM (inactive) | > 100 µM (inactive) | > 100 µM (inactive) | > 100 µM (inactive) | > 100 µM (inactive) | > 100 µM (inactive) | > 100 µM (inactive) | > 100 µM (inactive) | > 100 µM (inactive) | > 100 µM (inactive) | > 100 µM (inactive) |  | > 100 µM (inactive) | > 100 µM (inactive) | > 100 µM (inactive) | > 100 µM (inactive)
6 | Cc1ccnc2nc(-c3ccc(F)cc3)cc(O)c12 | 63.2 µM (inactive) | 68.1 µM (inactive) | > 80.4 µM (inactive) | 22.6 µM (inactive) | 5.97 µM (inactive) | 29.6 µM (inactive) | 42.2 µM (inactive) | 7.23 µM (inactive) | > 97.3 µM (inactive) | 5.55 µM (inactive) | 16 µM (inactive) | > 78.7 µM (inactive) | 18.7 µM (inactive) | > 82.8 µM (inactive) | 57.3 µM (inactive) | 86.3 µM (inactive) | > 71.4 µM (inactive) | 77.3 µM (inactive) | 28.4 µM (inactive) | 3.51 µM (inactive)
7 | N#C[BH2-][n+]1cn(C2CC(OP(=O)(O)OCC3OC(n4ccc(N)nc4=O)CC3O)C(CO)O2)c2nc(N)[nH]c(=O)c21 (configuration not stated) | > 100 µM (inactive) | > 100 µM (inactive) | > 100 µM (inactive) | > 100 µM (inactive) | > 100 µM (inactive) | > 100 µM (inactive) | > 100 µM (inactive) | > 100 µM (inactive) | > 100 µM (inactive) | > 100 µM (inactive) | > 100 µM (inactive) | > 100 µM (inactive) | > 100 µM (inactive) | > 100 µM (inactive) | > 100 µM (inactive) | > 100 µM (inactive) | > 100 µM (inactive) | > 100 µM (inactive) |  | > 100 µM (inactive)
8 | C/C(=N/NC(=S)Nc1ccccc1C)c1ccccn1 | 1.67 µM (inactive) | 0.0562 µM (active) | < 0.0153 µM (active) | 0.0766 µM (active) | 0.0143 µM (active) | 0.583 µM (active) | 0.0627 µM (active) | 0.173 µM (active) | 0.259 µM (active) | < 0.0145 µM (active) | 0.232 µM (active) | 2.43 µM (inactive) | 0.0726 µM (active) | 0.682 µM (active) | 1.01 µM (active) | 0.175 µM (active) | 0.0175 µM (active) | 1.08 µM (active) | < 0.0258 µM (active) | 0.807 µM (active)
9 | Cn1c(=O)oc2cc(C(=S)N3CCCCC3)ccc21 | > 100 µM (inactive) | > 100 µM (inactive) | > 100 µM (inactive) | > 100 µM (inactive) | > 100 µM (inactive) | > 100 µM (inactive) | > 100 µM (inactive) | > 100 µM (inactive) | > 100 µM (inactive) | > 100 µM (inactive) | > 100 µM (inactive) | > 100 µM (inactive) | > 100 µM (inactive) | > 100 µM (inactive) | > 100 µM (inactive) | > 100 µM (inactive) | > 100 µM (inactive) | > 100 µM (inactive) | > 100 µM (inactive) | > 100 µM (inactive)
10 | O=C(NCCCl)Nc1cccnc1 | 24.7 µM (inactive) | 13.6 µM (inactive) | 31.4 µM (inactive) | 5.19 µM (inactive) | 49.3 µM (inactive) | 29.6 µM (inactive) | 16.9 µM (inactive) | 13.8 µM (inactive) | 11.2 µM (inactive) | 50 µM (inactive) | 15.3 µM (inactive) | 41.4 µM (inactive) | 18.4 µM (inactive) | 0.951 µM (active) | 31.3 µM (inactive) | 30 µM (inactive) | 33 µM (inactive) | 21.2 µM (inactive) | 17.6 µM (inactive) | 12.8 µM (inactive)
11 | COc1ccc2[nH]c3c(C)c4c(c(C)c3c2c1)CN(C)C=C4 | 1.36 µM (inactive) | 13.2 µM (inactive) | 11.5 µM (inactive) | 1.98 µM (inactive) | 22.4 µM (inactive) | 0.226 µM (active) | 0.191 µM (active) | 1.35 µM (inactive) | 15.1 µM (inactive) | 3.44 µM (inactive) | 3.3 µM (inactive) | 0.333 µM (active) | 3.93 µM (inactive) | 7.21 µM (inactive) | 0.366 µM (active) | 0.293 µM (active) | 0.65 µM (active) | 3.44 µM (inactive) | 8.77 µM (inactive) | 15 µM (inactive)
12 | Cc1ccc2nnc(NS(=O)(=O)c3cc(C)c(Cl)cc3S)n2n1 | > 100 µM (inactive) | > 100 µM (inactive) | > 100 µM (inactive) | > 100 µM (inactive) | > 100 µM (inactive) | > 100 µM (inactive) | > 100 µM (inactive) | > 100 µM (inactive) | > 100 µM (inactive) | > 100 µM (inactive) | > 100 µM (inactive) | > 100 µM (inactive) | > 100 µM (inactive) | > 100 µM (inactive) | > 100 µM (inactive) |  | > 100 µM (inactive) | > 100 µM (inactive) | > 100 µM (inactive) | > 100 µM (inactive)
13 | c1ccc(-c2c3c(nc4c2CC[C@H]4NC2=NCCN2)[C@@H](NC2=NCCN2)CC3)cc1 | > 100 µM (inactive) | > 100 µM (inactive) | 98.2 µM (inactive) | > 100 µM (inactive) | 11.2 µM (inactive) | 58.1 µM (inactive) | > 100 µM (inactive) | > 100 µM (inactive) | > 100 µM (inactive) | > 100 µM (inactive) | > 100 µM (inactive) |  | > 100 µM (inactive) | > 100 µM (inactive) | 27.4 µM (inactive) | > 100 µM (inactive) | 56.2 µM (inactive) | > 100 µM (inactive) | > 100 µM (inactive) | > 100 µM (inactive)
14 | Cn1c(=O)c(-c2ccccc2)c(O)c2ccccc21 | > 100 µM (inactive) | > 100 µM (inactive) | > 100 µM (inactive) | > 100 µM (inactive) | > 100 µM (inactive) | 0.92 µM (active) | > 100 µM (inactive) | > 100 µM (inactive) | > 100 µM (inactive) | > 100 µM (inactive) |  | > 100 µM (inactive) | > 100 µM (inactive) | > 100 µM (inactive) | > 100 µM (inactive) | > 100 µM (inactive) | > 100 µM (inactive) | > 100 µM (inactive) |  | > 100 µM (inactive)
